# How the values were obtained:
# [1] = test system: interferon-stimulated gene (ISG) response; test: In vivo decitabine challenge model; parameters: species or system C57BL/6 mice; details: stampidine 3, 15, 75 mg/kg i.p. daily with decitabine 5 mg/kg i.p., Day 0 to Day 4; spleen, liver, terminal colon
# Protocol: Twenty 9-11 week old C57BL/6 mice were acclimated to the lab for at least 5 days. Stampidine was prepared in a 20% HP-b-CD in water solution for i.p. administration. Decitabine (Sigma) was dissolved in sterile PBS (pH 7.4) and dosed within 30 minutes of preparation of the solution. Doses of both stampidine and decitabine were administered i.p. once a day, every day from Day 0 to Day 4.
# On Day 0, mice were split into four groups of five mice and given their first dose of decitabine (i.p., 5 mg/kg) and stampidine. Dosing groups were:
# Decitabine and stampidine were administered daily from Day 0 to Day 4. All mice were euthanized 1 hour after the last dose administration on Day 4. Spleens, liver, and terminal colon were collected, along with plasma from each animal. The fold changes in interferon-stimulated gene (ISG) expression were calculated by first normalizing to GAPDH gene using the Delta CT method. The CT (gene of interest)−CT (reference gene) was calculated to generate a delta CT for all samples. The fold change was then calculated by taking the […](Delta CT(control)−Delta CT (experimental). The control in this example was the PBS control animal group. The Taqman duplex assay was used to determine levels of GAPDH v. IFIT2.
# IFN-β = test: Decitabine-stimulated human PBMC assay, IFN-β; assay type: cell-based; details: PBMCs with anti-CD3/anti-CD28 and 10 μM decitabine, 5 days
# Protocol: EasySep buffer (32 mL, Stem Cell, cat. #20144) was used to dilute 8 mL of LRSC buffy coat (from fresh Leukopak) with gentle mixing. The diluted buffy coat (20 mL) was transferred into each of two SepMate 50 tubes, and the tubes were filled with 15 mL of Lyphoprep (Stem Cell, ct. #07851) density gradient. The SepMate tubes were then centrifuged at 1200G for 10 minutes at room temperature with the brake on. The top layer of supernatant was collected in SepMate tubes by quickly pouring it into a new 50 mL conical tube. The PBMCs were washed with EasySep buffer×2 by centrifuging at 300G for 5 minutes. The cells were resuspended in 30 mL of EasySep and centrifuged at 100G for 5 minutes with the brake off, and the platelets were removed. The cells were then resuspended in 6 mL of 1× RBC lysis buffer (InvitroGen) and incubated at 37° C. for 5 minutes. Then, 25 mL of EasySep buffer was mixed into the tube and it was centrifuged at 300G for 5 minutes. The cells were resuspended in 10 mL of EasySep buffer and the cells were then counted with Cellometer (AO/PI). The PBMCs were resuspended in RPMI1640 (ThermoFisher)+10% FBS (HyClone)+p/s at 3×10^6/mL. The PBMCs (100 μL, 300 k PBMCs) were then seeded in a 96-well flat bottom microplate (Corning) that had been precoated with 100 μL of anti-CD3 antibody (10 μg/mL in PBS, Biolegend) or PBS at 4° C., one day before the assay was commenced. […]
# PBMCs = test: Decitabine-stimulated human PBMC assay, cell viability; assay type: cell-based; details: PBMCs with 10 μM decitabine, 5 days
# Protocol: After 5 days, the plate was spun down at 100×G for 5 minutes. Supernatants (100 μL) was collected for interferon β (IFN-β) analysis using the MSD assay noted above, and any residual supernatant was stored at −80° C.
# THP1-Dual KO-TREX1 cells = test: CellTiter-Glo cell viability in THP1 TREX1 KO cells; assay type: cell-based; details: highest dose, with 1 μM 5-aza-2′-deoxycytidine, five days
# Protocol: THP1 Dual TREX1 KO cells were purchased from Invivogen. The THP1-Dual™ KO-TREX1 cells were cultured in RPMI 1640, 10% heat-inactivated fetal bovine serum, 25 mM HEPES, 10 μg/mL Blasticidin, and 100 μg/mL Zeocin. THP1-Dual™ KO-TREX1 cells were treated with a dose titration of test compound in the presence of 1 μM 5-aza-2′-deoxycytidine (Sigma, cat #189825). Type 1 Interferon and cell viability were assessed after five days of treatment.
# Stock solution of test compound was prepared in DMSO followed by a three-fold dilution in DMSO. Additional 50× dilution was prepared in cell culture media for each dilution. 10 μL of diluted test compound was then added to a 384-well plate.
# THP1-Dual™ KO-TREX1 cells were treated with 1 μM 5-aza-2′-deoxycytidine. THP1-Dual™ KO-TREX1 cells (50 μL) were added to each well of the 384-well plate containing test compound titration at 10,000 cells/well. Cells were incubated at 37° C., 5% CO2 in a humidified incubator for five days. […] Luminescence was detected on a plate reader according to manufacturer's instructions. […]
# The remaining cells were assessed for cell viability by adding 30 μl of CellTiter-Glo (Promega, 09683) solution to each well, and placed on a shaker for 10 minutes at room temperature. Luminescence was detected on a plate reader, according to manufacturer's instructions. […]
smiles,measurement,setting,value
"COC(=O)[C@H](C)N[P@](=O)(OC[C@@H]1C=C[C@H](n2cc(C)c(=O)[nH]c2=O)O1)Oc1ccc(Br)cc1 [Stampidine, methyl ((S)-(4-bromophenoxy)(((2S,5R)-5-(5-methyl-2,4-dioxo-3,4-dihydropyrimidin-1(2H)-yl)-2,5-dihydrofuran-2-yl)methoxy)phosphoryl)-L-alaninate]",change in ISG response,[1],showed the change in ISG response which was most prominent in the spleen tissue
same,inhibition of IFN-β,IFN-β,showed inhibition of IFN-β
same,cellular toxicity,PBMCs,without any cellular toxicity
same,reduction in cell viability,THP1-Dual KO-TREX1 cells,~15%

# Source: US20250186467A1, “METHODS OF TREATING MEDICAL CONDITIONS USING STAMPIDINE OR A RELATED COMPOUND” (ROME Therapeutics, Inc., priority 2022, published 2025)
